The values below come from publication PMC11350787, “Antimicrobial Properties and Cytotoxicity of LL-37-Derived Synthetic Peptides to Treat Orthopedic Infections” (Antibiotics, 2024).

Structures can show the parent of a compound that is named as a salt. Peptide text beside a SMILES is read from it.

Assay [1] relates to S. aureus ATCC 43300. Briefly: microbe, parasite or virus in culture. The note with it: for Minimum Inhibitory Concentration (MIC): ATCC 43300, 18 h; for Minimum Bactericidal Concentration (MBC): ATCC 43300, 24 h. From the text: (§1) A total of 18 bacterial strains relevant to orthopedic infections were used for microbiological tests, including 8 ATCC (American Type Culture Collection, ATCC, Manassas, VA, USA) and 10 clinical isolates (CI) from the Laboratory of Clinical Chemistry and Microbiology, IRCCS Ospedale Galeazzi–Sant’Ambrogio of Milan (Italy) strain collection. The ATCC strains were used for the first screening (MIC/MBC) of all the AMPs produced, while the clinical isolates were used for further MIC/MBC assays on selected AMPs. Among CI, S. epidermidis GOI1153754-03-14 has been already characterized and used in previous studies. All the strains were stocked at −80°C and working stocks were stored at −20 °C. At the occurrence, the bacteria were resuscitated in Brain Hearth Infusion (BHI, Millipore, Milan, Italy) broth at 37 °C for 18 h from the working stocks.
(§2) To determine the minimum inhibitory concentration (MIC) and the minimum bactericidal concentration (MBC), ISO20776-1 and Clinical and Laboratory Standards Institute guidelines were followed. A commercial synthetic LL-37 (Aurogene, Rome, Italy) was used as the control in the MIC and MBC assays. A stock solution of each AMP was prepared at 600 µg/mL to achieve a final concentration of 300 µg/mL. […] The MIC was determined according to the aforementioned standard guidelines. The MBC was determined by plating 2 µL of culture from each well of the MIC plates on a Tryptic Soy Agar (TSA, Millipore, Milan, Italy) plate and incubated for 24 h at 37 °C. The concentration at which there was no growth was recorded as MBC. Each experiment was carried out in triplicate. Representative MIC and MBC values for vancomycin and gentamicin were assessed to offer a benchmark comparison for the AMPs. Quality control was conducted with Staphylococcus aureus ATCC 29,213 and vancomycin according to EUCAST guidelines.

Assay [2] relates to P. aeruginosa ATCC 27853. Put plainly: microbe, parasite or virus in culture. The conditions noted are these: for Minimum Inhibitory Concentration (MIC): ATCC 27853, 18 h; for Minimum Bactericidal Concentration (MBC): ATCC 27853, 24 h.
Description: as §1, §2

For assay [3], the system named is E. coli ATCC 25922. Put plainly: microbe, parasite or virus in culture. The note with it: for Minimum Inhibitory Concentration (MIC): ATCC 25922, 18 h; for Minimum Bactericidal Concentration (MBC): ATCC 25922, 24 h.
Description: as §1, §2

For assay [4], the system named is S. epidermidis ATCC 14990. Put plainly: microbe, parasite or virus in culture. The note with it: for Minimum Inhibitory Concentration (MIC): ATCC 14990, 18 h; for Minimum Bactericidal Concentration (MBC): ATCC 14990, 24 h.
Description: as §1, §2

The test system of assay [5] is S. aureus ATCC 49230. Put plainly: microbe, parasite or virus in culture. The note with it: for Minimum Inhibitory Concentration (MIC): ATCC 49230, 18 h; for Minimum Bactericidal Concentration (MBC): ATCC 49230, 24 h.
Description: as §1, §2

The subject of assay [6] is S. aureus ATCC 25923. Briefly: microbe, parasite or virus in culture. The conditions noted are these: for Minimum Inhibitory Concentration (MIC): ATCC 25923, 18 h; for Minimum Bactericidal Concentration (MBC): ATCC 25923, 24 h.
Description: as §1, §2

Assay [7] concerns S. epidermidis ATCC 35984. Put plainly: microbe, parasite or virus in culture. The note with it: for Minimum Inhibitory Concentration (MIC): ATCC 35984, 18 h; for Minimum Bactericidal Concentration (MBC): ATCC 35984, 24 h.
Description: as §1, §2

Assay [8] relates to ATCC strains.
Description: as §1, §2

Regarding `O=C(O)C(F)(F)F` [Na-TFA, Trifluoroacetic acid, reference compound], the MBC was above 200 µg/mL in assay [1] (Staphylococcus aureus, ATCC43300, 24 h, read-out: Minimum Bactericidal Concentration (MBC)); above 200 µg/mL in assay [2] (Pseudomonas aeruginosa, ATCC27853, 24 h, read-out: Minimum Bactericidal Concentration (MBC)); above 200 µg/mL in assay [3] (Escherichia coli, ATCC25922, 24 h, read-out: Minimum Bactericidal Concentration (MBC)); above 200 µg/mL in assay [4] (Staphylococcus epidermidis, ATCC14990, 24 h, read-out: Minimum Bactericidal Concentration (MBC)); above 200 µg/mL in assay [5] (Staphylococcus aureus, ATCC49230, 24 h, read-out: Minimum Bactericidal Concentration (MBC)); above 200 µg/mL in assay [6] (Staphylococcus aureus, ATCC25923, 24 h, read-out: Minimum Bactericidal Concentration (MBC)). Besides, in assay [7] (Staphylococcus epidermidis, ATCC35984, 24 h, read-out: Minimum Bactericidal Concentration (MBC)), the MBC is above 200 µg/mL. The MIC is above 200 µg/mL in assay [1] (Staphylococcus aureus, ATCC43300, read-out: Minimum Inhibitory Concentration (MIC)); above 200 µg/mL in assay [2] (Pseudomonas aeruginosa, ATCC27853, read-out: Minimum Inhibitory Concentration (MIC)); above 200 µg/mL in assay [3] (Escherichia coli, ATCC25922, read-out: Minimum Inhibitory Concentration (MIC)); above 200 µg/mL in assay [4] (Staphylococcus epidermidis, ATCC14990, read-out: Minimum Inhibitory Concentration (MIC)); above 200 µg/mL in assay [5] (Staphylococcus aureus, ATCC49230, read-out: Minimum Inhibitory Concentration (MIC)); above 200 µg/mL in assay [6] (Staphylococcus aureus, ATCC25923, read-out: Minimum Inhibitory Concentration (MIC)). Also, the MIC in assay [7] (Staphylococcus epidermidis, ATCC35984, read-out: Minimum Inhibitory Concentration (MIC)) was above 200 µg/mL. Moreover, the “Bacteriostatic or bactericidal effect” value in assay [8] (all ATCC strains, at the concentrations tested (up to 200 µg/mL)) is on record as “no bacteriostatic or bactericidal effect”.

As for `CC[C@H](C)[C@H](NC(=O)[C@H](CCCNC(=N)N)NC(=O)[C@H](CCC(N)=O)NC(=O)[C@@H](NC(=O)[C@@H](NC(=O)[C@H](CCCNC(=N)N)NC(=O)[C@@H](N)CCCCN)[C@@H](C)CC)C(C)C)C(=O)N[C@@H](CCCCN)C(=O)N[C@@H](CC(=O)O)C(=O)N[C@@H](Cc1ccccc1)C(=O)N[C@@H](CC(C)C)C(=O)N[C@@H](CCCNC(=N)N)C(N)=O` [KR-12] (H-KRIVQRIKDFLR-NH2), the “Minimum Inhibitory Concentration (MIC)” value in assay [1], in assay [2], in assay [3], in assay [4], in assay [5] and in assay [6] was above 300.00 µg/mL throughout. Further, in assay [7], the “Minimum Inhibitory Concentration (MIC)” value is above 300.00 µg/mL. Also, the “Minimum Bactericidal Concentration (MBC)” value in assay [1], in assay [2], in assay [3], in assay [4], in assay [5] and in assay [6] was above 300.00 µg/mL throughout. Moreover, the “Minimum Bactericidal Concentration (MBC)” value in assay [7] is reported as above 300.00 µg/mL. In assay [8] (18 h), the “MIC values over all ATCC strains tested” value is “greater than 300 µg/mL”.

Regarding `CC[C@H](C)[C@H](NC(=O)[C@H](CCCNC(=N)N)NC(=O)[C@H](CCC(N)=O)NC(=O)[C@@H](NC(=O)[C@@H](NC(=O)[C@H](CCCNC(=N)N)NC(=O)[C@H](CCCCN)NC(=O)[C@@H](N)Cc1ccccc1)[C@@H](C)CC)C(C)C)C(=O)N[C@@H](CCCCN)C(=O)N[C@@H](CC(=O)O)C(=O)N[C@@H](Cc1ccccc1)C(=O)N[C@@H](CC(C)C)C(=O)N[C@@H](CCCNC(=N)N)C(N)=O` [FK-13] (H-FKRIVQRIKDFLR-NH2), the “Minimum Inhibitory Concentration (MIC)” value in assay [1] was 300.00 µg/mL; in assay [2], 300.00 µg/mL; in assay [3] it was 75.00 µg/mL; in assay [4] it was 150.00 µg/mL; in assay [5], above 300.00 µg/mL; in assay [6], 300.00 µg/mL. For the same molecule, the “Minimum Inhibitory Concentration (MIC)” value in assay [7] was determined as 150.00 µg/mL. Also, the “Minimum Bactericidal Concentration (MBC)” value in assay [1] is given as above 300.00 µg/mL; in assay [2], 300.00 µg/mL; in assay [3], 150.00 µg/mL; in assay [4], 150.00 µg/mL; in assay [5], above 300.00 µg/mL; in assay [6] it was above 300.00 µg/mL. Also, in assay [7], the “Minimum Bactericidal Concentration (MBC)” value is 150.00 µg/mL. Besides, the “MBC values over all ATCC strains tested” value in assay [8] (18 h) was “greater than 300 µg/mL”.
